{"source": "paper PMC4854315", "about": "“Discovery of a novel allosteric inhibitor-binding site in ERK5: comparison with the canonical kinase hinge ATP-binding site” (Acta Crystallographica. Section D, Structural Biology, 2016)", "key": {"[1]": {"test_system": "225 kinases in the ThermoFisher standard kinase panel", "assay": "Kinase-panel activity screen, whole panel", "type": "biochemical", "conditions": "10 µM compound; for Kinase selectivity profile in words: panel of 225 kinases", "experimental": "Compounds 2, 3 and 5 were tested for activity against the 225 kinases in the ThermoFisher standard kinase panel. The standard Z′-LYTE assay protocol (ThermoFisher) was used to measure the percentage inhibition at 10 µM compound concentration (details are provided in the supporting information)."}, "recombinant human ERK5": {"target": "T1, recombinant human ERK5 (Homo sapiens, UniProt Q13164)", "T1 construct": "Catalytically active kinase domain of recombinant human ERK5 enzyme was purchased from Carna Biosciences; purchased Carna Biosciences", "T1 sequence (Q13164 55-347 limits assumed)": "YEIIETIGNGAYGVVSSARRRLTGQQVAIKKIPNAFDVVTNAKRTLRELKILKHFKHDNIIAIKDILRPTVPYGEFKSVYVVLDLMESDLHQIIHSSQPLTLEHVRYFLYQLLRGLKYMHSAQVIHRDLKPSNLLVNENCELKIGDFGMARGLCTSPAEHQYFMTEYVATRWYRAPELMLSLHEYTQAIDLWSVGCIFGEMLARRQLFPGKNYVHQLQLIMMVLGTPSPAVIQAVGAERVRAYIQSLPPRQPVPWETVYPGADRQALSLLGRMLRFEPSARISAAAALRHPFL", "assay": "TR-FRET (LANCE Ultra) biochemical assay of ERK5 kinase activity", "experimental": "Catalytically active kinase domain of recombinant human ERK5 enzyme was purchased from Carna Biosciences. […] The inhibitory potency of compounds against ERK5 was evaluated using the LANCE Ultra technology from PerkinElmer according to the manufacturer’s instructions. Briefly, 3 µl of different concentrations of ATP and 100 nM ULight-eIF4E-binding protein 1 (Thr37/46) peptide (Perkin-Elmer catalogue No. TRF0128) were incubated in the presence of serially diluted compound or DMSO control at room temperature in 384-well Greiner white polystyrene assay plates. The reaction was initiated by the addition of 3 µl of 10 nM kinase. The assay buffer consisted of 1 mM DTT, 10 mM MgCl2, 1 mM EGTA, 0.01%(v/v) Tween 20 in 50 mM HEPES pH 7.5. After 60 min incubation, the reaction was stopped by the addition of 6 µl stop/detection reagent mixture consisting of 20 mM EDTA and 4 nM Eu-anti-phospho-eIF4E-binding protein 1 (Thr37/46) antibody (PerkinElmer catalogue No. TRF0216) diluted in detection buffer. The plates were incubated for 1 h before the fluorescence was measured at 615 and 665 nm with an excitation wavelength of 320 nm using an EnVision Multilabel Reader from Perkin-Elmer in time-resolved fluorescence resonance energy transfer (TR-FRET) mode. The calculated signal ratio at 665/615 nm is proportional to the kinase activity. The concentration of compound producing 50% inhibition of the kinase activity (IC50) was calculated by using GraphPad Prism to fit the data to a symmetrical sigmoidal curve."}, "ADRBK2 (GRK3)": {"target": "T2, ADRBK2 (GRK3) (Homo sapiens, UniProt P35626)", "T2 construct": "purchased ThermoFisher (SelectScreen, Z'-LYTE)", "T2 sequence (P35626 1-688)": "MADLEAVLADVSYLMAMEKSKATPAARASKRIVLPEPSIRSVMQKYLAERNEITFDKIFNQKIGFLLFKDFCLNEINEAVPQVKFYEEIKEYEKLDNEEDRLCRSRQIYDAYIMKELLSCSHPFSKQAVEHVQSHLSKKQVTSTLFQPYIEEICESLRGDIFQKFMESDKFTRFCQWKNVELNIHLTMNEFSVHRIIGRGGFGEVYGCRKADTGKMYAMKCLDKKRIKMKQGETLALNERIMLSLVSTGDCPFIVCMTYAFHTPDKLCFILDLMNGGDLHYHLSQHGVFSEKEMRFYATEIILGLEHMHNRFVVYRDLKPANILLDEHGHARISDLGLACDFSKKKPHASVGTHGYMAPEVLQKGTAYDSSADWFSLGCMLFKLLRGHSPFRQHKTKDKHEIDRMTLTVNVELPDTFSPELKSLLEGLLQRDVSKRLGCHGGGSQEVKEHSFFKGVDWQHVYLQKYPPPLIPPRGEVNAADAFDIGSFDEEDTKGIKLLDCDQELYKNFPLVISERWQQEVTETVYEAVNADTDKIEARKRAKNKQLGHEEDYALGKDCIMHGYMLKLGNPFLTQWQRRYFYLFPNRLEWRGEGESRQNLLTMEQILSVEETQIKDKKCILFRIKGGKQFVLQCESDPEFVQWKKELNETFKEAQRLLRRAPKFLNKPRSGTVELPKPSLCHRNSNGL", "assay": "Z'-LYTE kinase panel", "type": "biochemical", "how_it_was_run": "(§1)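 A panel of 225 kinases is tested by Z′-LYTE under the standard protocol, with compounds at 10 µM and results given as percentage inhibition.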"}, "BLK": {"target": "T3, BLK (Homo sapiens, UniProt P51451)", "T3 construct": "purchased ThermoFisher (SelectScreen, Z'-LYTE)", "T3 sequence (P51451 whole entry)": "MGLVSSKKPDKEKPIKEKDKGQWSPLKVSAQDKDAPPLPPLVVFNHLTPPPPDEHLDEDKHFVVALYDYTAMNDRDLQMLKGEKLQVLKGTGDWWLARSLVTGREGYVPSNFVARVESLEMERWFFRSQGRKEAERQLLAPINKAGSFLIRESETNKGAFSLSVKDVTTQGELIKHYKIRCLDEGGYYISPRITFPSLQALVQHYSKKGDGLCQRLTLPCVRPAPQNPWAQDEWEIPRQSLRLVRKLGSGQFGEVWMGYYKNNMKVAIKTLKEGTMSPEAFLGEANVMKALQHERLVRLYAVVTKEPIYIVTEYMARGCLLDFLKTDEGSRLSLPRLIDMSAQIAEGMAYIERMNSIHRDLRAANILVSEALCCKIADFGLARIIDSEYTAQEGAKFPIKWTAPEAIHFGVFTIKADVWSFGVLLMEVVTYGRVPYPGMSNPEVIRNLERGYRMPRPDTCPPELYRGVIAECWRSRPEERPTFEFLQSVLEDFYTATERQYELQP", "assay": "Z'-LYTE kinase panel", "type": "biochemical", "how_it_was_run": "as §1"}, "PHKG1": {"target": "T4, PHKG1 (Homo sapiens, UniProt Q16816)", "T4 construct": "purchased ThermoFisher (SelectScreen, Z'-LYTE)", "T4 sequence (Q16816 whole entry)": "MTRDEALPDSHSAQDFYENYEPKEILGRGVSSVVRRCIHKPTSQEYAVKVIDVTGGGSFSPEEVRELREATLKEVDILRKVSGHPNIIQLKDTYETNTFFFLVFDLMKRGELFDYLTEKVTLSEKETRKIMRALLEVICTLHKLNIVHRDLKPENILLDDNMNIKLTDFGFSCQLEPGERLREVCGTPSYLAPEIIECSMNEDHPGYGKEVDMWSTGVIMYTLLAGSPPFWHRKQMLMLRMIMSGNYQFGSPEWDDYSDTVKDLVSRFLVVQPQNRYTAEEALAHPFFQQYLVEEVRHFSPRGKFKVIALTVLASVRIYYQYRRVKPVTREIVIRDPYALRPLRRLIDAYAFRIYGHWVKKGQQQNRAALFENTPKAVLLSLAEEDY", "assay": "Z'-LYTE kinase panel", "type": "biochemical", "how_it_was_run": "as §1"}, "STK4 (MST1)": {"target": "T5, STK4 (MST1) (Homo sapiens, UniProt Q13043)", "T5 construct": "purchased ThermoFisher (SelectScreen, Z'-LYTE)", "T5 sequence (Q13043 1-487)": "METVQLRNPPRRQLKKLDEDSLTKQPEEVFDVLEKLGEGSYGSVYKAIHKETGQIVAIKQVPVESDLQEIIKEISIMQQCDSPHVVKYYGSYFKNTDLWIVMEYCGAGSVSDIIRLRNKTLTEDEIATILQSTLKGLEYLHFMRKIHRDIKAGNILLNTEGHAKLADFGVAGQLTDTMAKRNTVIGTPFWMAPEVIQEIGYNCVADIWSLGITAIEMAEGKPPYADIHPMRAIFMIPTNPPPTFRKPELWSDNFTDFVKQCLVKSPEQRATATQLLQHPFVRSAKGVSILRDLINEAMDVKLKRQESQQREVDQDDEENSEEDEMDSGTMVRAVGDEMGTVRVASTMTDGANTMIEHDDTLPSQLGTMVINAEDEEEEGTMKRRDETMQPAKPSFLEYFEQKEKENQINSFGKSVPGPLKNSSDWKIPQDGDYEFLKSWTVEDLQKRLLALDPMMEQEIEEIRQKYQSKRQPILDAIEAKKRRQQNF", "assay": "Z'-LYTE kinase panel", "type": "biochemical", "how_it_was_run": "as §1"}, "MST1R (RON)": {"target": "T6, MST1R (RON) (Homo sapiens, UniProt Q04912)", "T6 construct": "purchased ThermoFisher (SelectScreen, Z'-LYTE)", "T6 sequence (Q04912 25-1400)": "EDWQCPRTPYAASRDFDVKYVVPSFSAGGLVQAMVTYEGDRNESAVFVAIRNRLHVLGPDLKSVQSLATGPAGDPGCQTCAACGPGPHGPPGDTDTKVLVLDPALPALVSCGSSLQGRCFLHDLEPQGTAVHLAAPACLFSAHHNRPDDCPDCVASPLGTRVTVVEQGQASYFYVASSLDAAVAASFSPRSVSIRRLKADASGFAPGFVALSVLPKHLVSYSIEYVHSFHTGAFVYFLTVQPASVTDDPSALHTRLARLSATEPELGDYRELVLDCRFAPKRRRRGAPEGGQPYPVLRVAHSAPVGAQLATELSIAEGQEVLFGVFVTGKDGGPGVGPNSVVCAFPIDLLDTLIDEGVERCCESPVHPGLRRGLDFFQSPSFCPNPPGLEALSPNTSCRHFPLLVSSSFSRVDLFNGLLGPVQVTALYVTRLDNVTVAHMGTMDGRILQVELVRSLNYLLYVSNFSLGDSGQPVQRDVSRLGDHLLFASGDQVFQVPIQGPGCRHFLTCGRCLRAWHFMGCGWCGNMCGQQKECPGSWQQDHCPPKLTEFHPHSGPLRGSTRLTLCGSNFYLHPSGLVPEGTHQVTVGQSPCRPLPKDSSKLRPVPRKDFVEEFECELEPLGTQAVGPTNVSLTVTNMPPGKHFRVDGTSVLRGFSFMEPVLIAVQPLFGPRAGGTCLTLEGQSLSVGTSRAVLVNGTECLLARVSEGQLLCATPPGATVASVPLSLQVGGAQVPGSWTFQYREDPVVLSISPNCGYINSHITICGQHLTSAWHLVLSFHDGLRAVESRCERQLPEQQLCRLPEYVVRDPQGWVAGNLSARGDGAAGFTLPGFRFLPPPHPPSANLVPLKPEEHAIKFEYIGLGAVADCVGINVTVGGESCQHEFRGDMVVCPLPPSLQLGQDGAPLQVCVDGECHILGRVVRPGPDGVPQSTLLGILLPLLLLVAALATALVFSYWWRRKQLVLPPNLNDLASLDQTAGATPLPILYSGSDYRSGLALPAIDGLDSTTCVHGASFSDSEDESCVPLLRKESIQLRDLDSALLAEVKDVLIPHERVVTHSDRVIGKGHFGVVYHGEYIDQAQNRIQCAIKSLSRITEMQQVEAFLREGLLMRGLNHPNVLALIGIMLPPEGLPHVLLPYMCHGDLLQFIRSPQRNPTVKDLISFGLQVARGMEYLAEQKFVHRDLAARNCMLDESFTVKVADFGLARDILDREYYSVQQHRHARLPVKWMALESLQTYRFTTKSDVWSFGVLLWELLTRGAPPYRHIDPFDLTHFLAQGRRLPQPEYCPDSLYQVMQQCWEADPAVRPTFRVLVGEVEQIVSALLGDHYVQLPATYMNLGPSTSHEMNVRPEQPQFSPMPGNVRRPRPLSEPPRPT", "assay": "Z'-LYTE kinase panel", "type": "biochemical", "how_it_was_run": "as §1"}, "RPS6KA6 (RSK4)": {"target": "T7, RPS6KA6 (RSK4) (Homo sapiens, UniProt Q9UK32)", "T7 construct": "purchased ThermoFisher (SelectScreen, Z'-LYTE)", "T7 sequence (Q9UK32 whole entry)": "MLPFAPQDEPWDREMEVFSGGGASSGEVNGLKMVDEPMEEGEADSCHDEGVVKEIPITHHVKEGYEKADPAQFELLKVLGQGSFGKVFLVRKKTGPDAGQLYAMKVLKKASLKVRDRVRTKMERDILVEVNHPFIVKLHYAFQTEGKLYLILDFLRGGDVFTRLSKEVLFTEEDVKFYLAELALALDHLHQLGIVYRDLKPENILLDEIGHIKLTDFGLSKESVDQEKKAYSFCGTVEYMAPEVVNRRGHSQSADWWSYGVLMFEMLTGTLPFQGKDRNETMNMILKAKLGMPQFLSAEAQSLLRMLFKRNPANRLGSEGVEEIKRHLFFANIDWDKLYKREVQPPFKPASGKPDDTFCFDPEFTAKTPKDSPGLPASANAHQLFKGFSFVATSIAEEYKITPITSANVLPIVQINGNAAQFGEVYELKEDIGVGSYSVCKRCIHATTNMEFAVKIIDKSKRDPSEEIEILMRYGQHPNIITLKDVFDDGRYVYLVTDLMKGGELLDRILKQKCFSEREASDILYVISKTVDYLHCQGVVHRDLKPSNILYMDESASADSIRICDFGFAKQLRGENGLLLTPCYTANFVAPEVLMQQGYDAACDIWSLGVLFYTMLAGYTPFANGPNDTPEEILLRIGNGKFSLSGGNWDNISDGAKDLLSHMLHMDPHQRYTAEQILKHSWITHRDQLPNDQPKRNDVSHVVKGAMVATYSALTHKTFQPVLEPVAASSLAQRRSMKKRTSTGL", "assay": "Z'-LYTE kinase panel", "type": "biochemical", "how_it_was_run": "as §1"}, "ERK5 signalling": {"test_system": "ERK5 signalling", "set-up": "method as in Gavine et al., 2015", "conditions": "HEK293 cell line stably co-expressing MEK5CA and ERK5; ref Gavine et al., 2015; cited from earlier work"}, "[2]": {"conditions": "TR-FRET enzymatic assay, phosphorylated ERK5, read-out: ERK5 IC50"}}, "note": "pIC50: −log10 of the molar value. Read-outs that look alike come from different tables or passages of the source.", "data": [{"compound": "Cc1ncc(-c2nc(Nc3ccc(C(=O)NCCN4CCCCC4)cc3)ncc2F)n1C(C)C", "note": "[Compound 3]", "values": [{"measurement": "Kinase selectivity profile in words", "setting": "[1]", "value": "most promiscuous"}, {"measurement": "pIC50", "setting": "recombinant human ERK5; [2]", "value": 7.38}, {"measurement": "inhibition at 10 µM", "setting": "ADRBK2 (GRK3)", "value": 0.689, "unit": "%"}, {"measurement": "inhibition at 10 µM", "setting": "BLK", "value": 65, "unit": "%"}, {"measurement": "inhibition at 10 µM", "setting": "PHKG1", "value": 100, "unit": "%"}, {"measurement": "inhibition at 10 µM", "setting": "STK4 (MST1)", "value": 82, "unit": "%"}, {"measurement": "inhibition at 10 µM", "setting": "MST1R (RON)", "value": 67, "unit": "%"}, {"measurement": "inhibition at 10 µM", "setting": "RPS6KA6 (RSK4)", "value": 82, "unit": "%"}]}, {"compound": "Cc1cc(Nc2nc(N)nn2C(=O)NC(C)C)ccc1Cl", "note": "[Compound 5]", "values": [{"measurement": "Number of kinases with significant activity (greater than 80% inhibition) out of the 225 tested", "setting": "[1]", "value": "five"}, {"measurement": "Kinase selectivity profile in words", "setting": "[1]", "value": "most selective"}, {"measurement": "Mode of ERK5 inhibition with respect to ATP", "setting": "recombinant human ERK5; ATP-competition study, IC50 curves at different ATP concentrations", "value": "ATP-competitive"}, {"measurement": "pIC50", "setting": "recombinant human ERK5; ERK5 IC50 at [ATP] 20 µM, [ATP] 20 µM", "value": 5.64}, {"measurement": "pIC50", "setting": "recombinant human ERK5; ERK5 IC50 at [ATP] 40 µM, [ATP] 40 µM", "value": 5.54}, {"measurement": "pIC50", "setting": "recombinant human ERK5; ERK5 IC50 at [ATP] 60 µM, [ATP] 60 µM", "value": 5.51}, {"measurement": "pIC50", "setting": "recombinant human ERK5; ERK5 IC50 at [ATP] 200 µM, [ATP] 200 µM", "value": 5.39}, {"measurement": "pIC50", "setting": "recombinant human ERK5; ERK5 IC50 at [ATP] 1000 µM, [ATP] 1000 µM", "value": 5.00}, {"measurement": "pIC50", "setting": "recombinant human ERK5; ERK5 IC50 at [ATP] 2000 µM, [ATP] 2000 µM", "value": 4.83}, {"measurement": "pIC50", "setting": "recombinant human ERK5; [2]", "value": 5.64}, {"measurement": "pIC50", "setting": "recombinant human ERK5; [ATP] 80 µM, read-out: ERK5 IC50 at [ATP] 80 µM", "value": 5.47}, {"measurement": "pIC50", "setting": "recombinant human ERK5; [ATP] 500 µM, read-out: ERK5 IC50 at [ATP] 500 µM", "value": 5.20}, {"measurement": "inhibition at 10 µM", "setting": "ADRBK2 (GRK3)", "value": -7, "unit": "%"}, {"measurement": "inhibition at 10 µM", "setting": "BLK", "value": 22, "unit": "%"}, {"measurement": "inhibition at 10 µM", "setting": "PHKG1", "value": -5.38, "unit": "%"}, {"measurement": "inhibition at 10 µM", "setting": "STK4 (MST1)", "value": 65, "unit": "%"}, {"measurement": "inhibition at 10 µM", "setting": "MST1R (RON)", "value": 1.17, "unit": "%"}, {"measurement": "inhibition at 10 µM", "setting": "RPS6KA6 (RSK4)", "value": 58, "unit": "%"}]}, {"compound": "XMD8-92 [Compound 2, reference compound]", "values": [{"measurement": "ADRBK2 (GRK3) % Inhibition", "setting": "ADRBK2 (GRK3); 10 µM compound, ATP Km app", "value": -7, "unit": "%"}, {"measurement": "BLK % Inhibition", "setting": "BLK; 10 µM compound, ATP Km app", "value": 38, "unit": "%"}, {"measurement": "PHKG1 % Inhibition", "setting": "PHKG1; 10 µM compound, ATP Km app", "value": 12, "unit": "%"}, {"measurement": "STK4 (MST1) % Inhibition", "setting": "STK4 (MST1); 10 µM compound, ATP Km app", "value": 6, "unit": "%"}, {"measurement": "MST1R (RON) % Inhibition", "setting": "MST1R (RON); 10 µM compound, ATP Km app", "value": 37, "unit": "%"}, {"measurement": "RPS6KA6 (RSK4) % Inhibition", "setting": "RPS6KA6 (RSK4); 10 µM compound, ATP Km app", "value": 72, "unit": "%"}, {"measurement": "Block of downstream ERK5 signalling", "setting": "ERK5 signalling", "value": "able to block downstream ERK5 signalling"}]}]}
